Results from PubChem BioAssay AID328 (DTP/NCI, 2004).
Where “and” joins values, the source holds several entries; their conditions need not be identical. Equal values may be shown once. Inconclusive results and toxic doses are left out. Rule for the calls: active = survival T/C of 150% or more; inactive = T/C below 125% in these data. Residues, ends and D or L forms follow the SMILES beside them.

Test system: BDF1 mice, P388 leukemia ip, median survival T/C
Experiment: NCI In Vivo Anticancer Drug Screen. Data for tumor model P388 Leukemia (intraperitoneal) in B6D2F1 (BDF1) mice
Settings: endpoint: median survival time, higher = longer survival
In short: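 Each value expresses how treatment altered survival: treated-mouse outcome over vehicle-mouse outcome, both groups bearing the transplanted tumour.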

[1] = dose: 100.0 mg/kg/injection, schedule: Q01DX009 (ip), vehicle: saline with Tween-80
[2] = dose: 200.0 mg/kg/injection, schedule: Q01DX009 (ip), vehicle: saline with Tween-80
[3] = dose: 200.0 mg/kg/injection, schedule: Q04DX003 (ip), vehicle: Klucel (hydroxypropylcellulose) (HPC)
[4] = dose: 400.0 mg/kg/injection, schedule: Q04DX003 (ip), vehicle: Klucel (hydroxypropylcellulose) (HPC)
[5] = dose: 100.0 mg/kg/injection, schedule: Q04DX003 (ip), vehicle: saline with Tween-80
[6] = dose: 200.0 mg/kg/injection, schedule: Q04DX003 (ip), vehicle: saline with Tween-80
[7] = dose: 400.0 mg/kg/injection, schedule: Q01DX009 (ip), vehicle: saline with Tween-80
[8] = dose: 400.0 mg/kg/injection, schedule: Q04DX003 (ip), vehicle: saline with Tween-80
[9] = dose: 100.0 mg/kg/injection, schedule: Q04DX003 (ip), vehicle: Klucel (hydroxypropylcellulose) (HPC)
[10] = dose: 100.0 mg/kg/injection, schedule: Q01DX009 (ip), vehicle: water
[11] = dose: 100.0 mg/kg/injection, schedule: Q04DX003 (ip), vehicle: water
[12] = dose: 200.0 mg/kg/injection, schedule: Q01DX009 (ip), vehicle: water
[13] = dose: 200.0 mg/kg/injection, schedule: Q04DX003 (ip), vehicle: water
[14] = dose: 100.0 mg/kg/injection, schedule: Q04DX003 (ip), vehicle: saline
[15] = dose: 200.0 mg/kg/injection, schedule: Q04DX003 (ip), vehicle: saline
[16] = dose: 400.0 mg/kg/injection, schedule: Q04DX003 (ip), vehicle: saline
[17] = dose: 100.0 mg/kg/injection, schedule: Q01DX009 (ip), vehicle: saline
[18] = dose: 200.0 mg/kg/injection, schedule: Q01DX009 (ip), vehicle: saline

Measured: T/C

O=[N+]([O-])c1ccc(F)c(CNc2ncnc3c2ncn3C2CCCCO2)c1 (stereo not given)
inactive: dose: 100.0 mg/kg/injection, schedule: Q01DX001 (ip), vehicle: Klucel (hydroxypropylcellulose) (HPC) 95 % of control | dose: 200.0 mg/kg/injection, schedule: Q01DX001 (ip), vehicle: Klucel (hydroxypropylcellulose) (HPC) 110 % of control | dose: 400.0 mg/kg/injection, schedule: Q01DX001 (ip), vehicle: Klucel (hydroxypropylcellulose) (HPC) 105 % of control

N/N=C(\N)c1nn[nH]n1
inactive: dose: 25.0 mg/kg/injection, schedule: Q01DX009 (ip), vehicle: saline with Tween-80 96 % of control | dose: 50.0 mg/kg/injection, schedule: Q01DX009 (ip), vehicle: saline with Tween-80 96 % of control | [1] 110 % of control | [2] 86 % of control

S=C1NCCS1
inactive: dose: 22.5 mg/kg/injection, schedule: Q01DX009 (ip), vehicle: saline with Tween-80 97 % of control | dose: 45.0 mg/kg/injection, schedule: Q01DX009 (ip), vehicle: saline with Tween-80 97 % of control | dose: 90.0 mg/kg/injection, schedule: Q01DX009 (ip), vehicle: saline with Tween-80 92 % of control

C1=NOC2c3ccc4ccccc4c3CCC12 (stereo not given)
inactive: [3] 87 % of control | [4] 95 % of control

COC(=O)C(NC(=O)C(NC(=O)C(N)C(C)C)C(C)C)C(C)C (stereo not drawn) (H-Val-Val-Val-OMe; configuration not given here)
inactive: dose: 50.0 mg/kg/injection, schedule: Q01DX005 (ip), vehicle: saline 101 % of control | dose: 100.0 mg/kg/injection, schedule: Q01DX005 (ip), vehicle: saline 99 % of control | dose: 200.0 mg/kg/injection, schedule: Q01DX005 (ip), vehicle: saline 92 % of control

CCOC(=O)c1ccc(NCC(=N)N)cc1
inactive: dose: 37.5 mg/kg/injection, schedule: Q01DX001 (ip), vehicle: saline sonified 100 % of control | dose: 75.0 mg/kg/injection, schedule: Q01DX001 (ip), vehicle: saline sonified 100 % of control | dose: 150.0 mg/kg/injection, schedule: Q01DX001 (ip), vehicle: saline sonified 100 % of control

O=C1c2ccccc2CC1(Br)C(Br)c1ccccc1 (stereo not given)
inactive: [1] 115 % of control | [5] 104 % of control | [2] 108 % of control | [6] 104 % of control | [7] 115 % of control | [8] 103 % of control

COC1CC=CC2=C1CCC1C2CC2C(=O)C1(C)CCC2O (stereo not given)
inactive: dose: 100.0 mg/kg/injection, schedule: Q01DX001 (ip), vehicle: other 105 % of control | dose: 200.0 mg/kg/injection, schedule: Q01DX001 (ip), vehicle: other 100 % of control | dose: 400.0 mg/kg/injection, schedule: Q01DX001 (ip), vehicle: other 100 % of control

O=C(NNc1ccccc1)C(F)(F)F
inactive: dose: 12.5 mg/kg/injection, schedule: Q01DX009 (ip), vehicle: Klucel (hydroxypropylcellulose) (HPC) 90 % of control | dose: 25.0 mg/kg/injection, schedule: Q01DX009 (ip), vehicle: Klucel (hydroxypropylcellulose) (HPC) 95 % of control | dose: 37.5 mg/kg/injection, schedule: Q04DX003 (ip), vehicle: saline with Tween-80 100 % of control | dose: 50.0 mg/kg/injection, schedule: Q01DX009 (ip), vehicle: Klucel (hydroxypropylcellulose) (HPC) 110 % of control | dose: 56.25 mg/kg/injection, schedule: Q01DX001 (ip), vehicle: saline with Tween-80 104 % of control | dose: 75.0 mg/kg/injection, schedule: Q04DX003 (ip), vehicle: saline with Tween-80 104 % of control | dose: 112.5 mg/kg/injection, schedule: Q01DX001 (ip), vehicle: saline with Tween-80 100 % of control

Cc1c(N)nc(Br)c2ccccc12
inactive: dose: 100.0 mg/kg/injection, schedule: Q04DX003 (ip), vehicle: saline sonified 91 % of control | dose: 200.0 mg/kg/injection, schedule: Q04DX003 (ip), vehicle: saline sonified 116 % of control

CC12CCC3c4ccccc4CCC3(CO1)C2 (stereo not given)
inactive: dose: 100.0 mg/kg/injection, schedule: Q01DX009 (ip), vehicle: Klucel (hydroxypropylcellulose) (HPC) 100 % of control | [9] 104 % of control | dose: 200.0 mg/kg/injection, schedule: Q01DX009 (ip), vehicle: Klucel (hydroxypropylcellulose) (HPC) 100 % of control | [3] 108 % of control | dose: 400.0 mg/kg/injection, schedule: Q01DX009 (ip), vehicle: Klucel (hydroxypropylcellulose) (HPC) 100 % of control | [4] 100 % of control

Clc1ccc(-c2cc(=[N+]3CC[N+](=c4cc(-c5ccc(Cl)cc5)ss4)CC3)ss2)cc1
inactive: dose: 50.0 mg/kg/injection, schedule: Q04DX003 (ip), vehicle: water 109 % of control | [10] 121 % of control | [11] 116 % of control | [12] 111 % of control | [13] 109 % of control

CCOC(=O)c1cnn(C(N)=O)c1N
inactive: [1] 115 % of control | [5] 110 % of control | [2] 90 % of control | [6] 115 % of control | [7] 109 % of control and 115 % of control | [8] 115 % of control

c1ccc(-n2nc3c(c2-c2ccc(OCCN4CCCC4)cc2)CCCc2ccccc2-3)cc1
inactive: dose: 25.0 mg/kg/injection, schedule: Q04DX003 (ip), vehicle: saline with Tween-80 120 % of control | dose: 50.0 mg/kg/injection, schedule: Q04DX003 (ip), vehicle: saline with Tween-80 120 % of control | [5] 100 % of control

OCc1nccn1Cc1ccccc1
inactive: dose: 12.5 mg/kg/injection, schedule: Q01DX009 (ip), vehicle: water 108 % of control | dose: 25.0 mg/kg/injection, schedule: Q01DX009 (ip), vehicle: water 99 % of control | dose: 50.0 mg/kg/injection, schedule: Q01DX009 (ip), vehicle: water 101 % of control | [10] 108 % of control | [12] 101 % of control | dose: 300.0 mg/kg/injection, schedule: Q01DX009 (ip), vehicle: water 114 % of control

CC(=O)OCC(CO)(CO)CO
inactive: [14] 100 % of control | [15] 100 % of control | [16] 100 % of control

C[C@]12CC[C@H]3C(=CCc4cc(O)ccc43)[C@@H]1C/C(=N\O)C2=O
inactive: [17] 90 % of control | [9] 104 % of control | [18] 100 % of control | [3] 95 % of control | dose: 264.0 mg/kg/injection, schedule: Q01DX009 (ip), vehicle: saline with Tween-80 109 % of control | [7] 104 % of control | dose: 400.0 mg/kg/injection, schedule: Q01DX009 (ip), vehicle: saline 95 % of control | [4] 90 % of control | dose: 600.0 mg/kg/injection, schedule: Q01DX009 (ip), vehicle: saline with Tween-80 109 % of control

CCOC(=O)C(C)(OCC)OCC
inactive: dose: 50.0 mg/kg/injection, schedule: Q01DX009 (ip), vehicle: saline 105 % of control | [17] 110 % of control | [10] 98 % of control | [14] 100 % of control | [11] 104 % of control | [18] 115 % of control | [12] 101 % of control | [15] 91 % of control | [13] 95 % of control | [16] 91 % of control | dose: 400.0 mg/kg/injection, schedule: Q04DX003 (ip), vehicle: water 100 % of control
